Experimental data as given in ChEMBL document CHEMBL1148087, “Structure and absolute configuration of palmonine F, a new eunicellin-based diterpene from the gorgonian Eunicella verrucosa” (1994).
Converted amounts (≈) assume the structure as drawn.

What was measured:
Format in all cases: functional
Details in all cases: read-out: ED50 (the source's name)
P388 = assay: Cytotoxicity against mouse P388 cells
A549 = assay: Cytotoxicity against human A549 cells
HT-29 = assay: Cytotoxicity against human HT-29 cells
SK-MEL-28 = assay: Cytotoxicity against human SK-MEL-28 cells

SMILES | EC50 (P388) [mg/L] | EC50 (A549) [mg/L] | EC50 (HT-29) [mg/L] | EC50 (SK-MEL-28) [mg/L]
CO[C@H]1CC[C@@](C)(OC(C)=O)[C@@H]2O[C@H](C[C@]1(C)O)[C@@H]1[C@H]2[C@@H](C(C)C)CC[C@@]1(C)OC(C)=O [PALMONINE A] | > 10 | > 10 | > 10 | > 10
C=C1C[C@H]2O[C@H]([C@H]3[C@@H]2[C@](C)(OC(C)=O)CC[C@@H]3C(C)C)[C@](C)(OC(C)=O)CC[C@@H]1OC(C)=O [PALMONINE B] | 5 (≈ 10.8 µM) | – | – | 5 (≈ 10.8 µM)
CO[C@H]1CC[C@@](C)(OC(C)=O)[C@@H]2O[C@H](C[C@]1(C)O)[C@@H]1[C@H]2[C@@H](C(C)C)CC[C@@]1(C)O [PALMONINE C] | > 10 | > 10 | > 10 | > 10
C=C1C[C@H]2O[C@H]([C@H]3[C@@H]2[C@](C)(OC(C)=O)CC[C@@H]3C(C)C)[C@](C)(OC(C)=O)CCC1=O [PALMONINE D] | > 10 | > 10 | > 10 | > 10
CC(=O)O[C@]1(C)CC[C@H](C(C)C)[C@@H]2[C@H]1[C@H]1/C=C(/C)C(=O)CC[C@@](C)(OC(C)=O)[C@@H]2O1 [PALMONINE E] | > 10 | > 10 | > 10 | > 10
C=C1C[C@H]2O[C@H]([C@H]3[C@@H]2[C@](C)(OC(C)=O)CC[C@@H]3C(C)C)[C@](C)(OC(C)=O)CC[C@@H]1O [PALMONINE F] | > 10 | > 10 | > 10 | > 10
